Patent US12564583B2, “Small molecules against cereblon to enhance effector T cell function” (H. LEE MOFFITT CANCER CENTER AND RESEARCH INSTITUTE, INC., priority 2016, dated 2026)
pIC50: −log10 of the molar value. Non-standard residues stand in square brackets, D forms with d. Residues, ends and D or L forms follow the SMILES beside them. pGlu = O=C1CC[C@@H](C(=O)O)N1

Key:
U-937 = assay: Viability of sensitive cell line relative to DMSO; type: cell-based
[1] = Viability of sensitive cell line relative to DMSO; type: cell-based; parameters: concentration or dose not given beside the values; settings: human, lymphocytes
THP-1 = assay: Viability of sensitive cell line relative to DMSO; type: cell-based
[2] = target: thalidomide binding domain (TBD) of cereblon (Homo sapiens, UniProt Q96SW2); assay: Cereblon binding (DSF, FP/FI); settings: for inhibition at 200 µM: read-out: Cereblon Binding (≥50% inhibition at 200 μM)
Procedure: Several libraries are available for screening inhibitors. Virtual analysis was formulated and then theoretical design of chemical test kit and virtual screen of test kit were carried out. Physical binding studies were also completed for the initial compounds using DSF and FP assays after they are fully tested. TEST KITs that represent the compounds identified from each of the available chemical libraries based on virtual chemical structures were also made.

HL-60 = assay: Viability of sensitive cell line relative to DMSO; type: cell-based
K562 = assay: Viability of sensitive cell line relative to DMSO; type: cell-based
MM1.S = assay: Viability of sensitive cell line relative to DMSO; type: cell-based, human
Procedure: (§1) For proliferation studies, 1-2×10^4 cells per well were seeded in a 96-well plate and were treated with using cell-counting-8 kit (CCK8) (Dojindo, Rockville, MD) according to manufacturer's protocol.

U266 = assay: Viability of sensitive cell line relative to DMSO; type: cell-based, human
Procedure: as §1

[3] = tested on: BRD4 protein and c-Myc expression; assay: Western blot of BRD4 and c-Myc; type: cell-based, human and mouse
c-Myc mRNA = assay: qRT-PCR of c-Myc in T cells; type: cell-based; settings: primary mouse T cells, 72 h
Procedure: qRT-PCR: Isolated T cells from Crbn^+/+ and Crbn^−/− mice were lysed, homogenized (Qiashredder, Qiagen), and total RNA extracted (RNeasy, Qiagen) according to manufacturer protocol. Complementary DNA was generated from isolated RNA (iScript cDNA synthesis Kit, Bio-Rad). RNA expression was analyzed by quantitative real time-polymerase chain reaction (qRT-PCR) using Taqman Universal PCR Master Mix for Taqman probes (Thermo Fischer Scientific) against (cDNA) c-Myc (Mm00487804_m1) and (cDNA) β2M (Mm00437762_m1). Samples were run on an Applied Biosystems 7900 HT and Sequence Detection Systems software.

mouse T cells [4] = assay: Flow cytometry of activated T cells (CD98, viability, division); type: cell-based
human TBD wild type = target: T1, human TBD wild type (Homo sapiens, UniProt Q96SW2); assay: Intrinsic tryptophan fluorescence assay (IF); type: binding
T1 construct: The gene coding for the human TBD (aa 317-425) was synthesized; GST (PreScission site, pGEX-6P-1) (N, cleaved yes); made in house; host or cells: E. coli Rosetta 2(DE3)pLysS
Description: Intrinsic tryptophan fluorescence assay: Binding of compounds to wild-type and mutant TBD was monitored by fluorescence spectroscopy, using an adapted previously published method (14). All chemicals used in this assay were purchased from Sigma-Aldrich unless otherwise stated. In this assay, changes in emission spectra are induced by interactions of these compounds with the three Trp residues (Trp380, Trp386 and Trp400) in the binding site (15, 16). […] A 0.5% final DMSO concentration was used in each well. […] All measurements were done in triplicate and corrected for inner filter effect to subtract for ligand-associated fluorescence, as described (17). […] Graph plotting and curve fitting to obtain apparent dissociation constant (KD) values were calculated by fitting the relative change in intrinsic fluorescence at 340 nm (1-F/F0) versus ligand concentration to a nonlinear regression with one-site binding hyperbola with GraphPad Prism Sofware (GraphPad Software, La Jolla, CA).

human T cells [5] = assay: IL-2 production by stimulated T cells; type: cell-based; settings: anti-CD3 stimulated, relative to DMSO
[6] = tested on: Human multiple myeloma cell lines U266, H929, MM1.S, and OPM2; assay: Growth suppression of multiple myeloma cells; type: cell-based; settings: for pIC50: Homo sapiens, Multiple myeloma cell, read-out: IC50 doses
Procedure: as §1

mouse T cells [7] = assay: IL-2 production by stimulated T cells; type: cell-based; settings: 10 μM, ± anti-CD28
IL-2 = IL-2 relative to DMSO; type: cell-based
[8] = Viability relative to DMSO; type: cell-based; parameters: concentration or dose not given beside the values
human T cells [9] = assay: Viability and proliferation of activated T cells; type: cell-based

thalidomide binding domain (TBD) of cereblon, sequence (Q96SW2 318-426 limits assumed): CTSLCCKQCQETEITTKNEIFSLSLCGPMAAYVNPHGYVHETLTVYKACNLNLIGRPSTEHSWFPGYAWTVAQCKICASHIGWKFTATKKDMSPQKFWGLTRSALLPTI
T1 sequence (Q96SW2 317-425): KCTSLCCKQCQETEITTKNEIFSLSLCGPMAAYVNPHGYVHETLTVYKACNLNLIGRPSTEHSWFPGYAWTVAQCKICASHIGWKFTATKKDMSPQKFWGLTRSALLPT

SMILES | Cereblon Binding (≥50% inhibition at 200 μM) [2] | IL-2 (%) (Relative to DMSO) (IL-2) | viability [8] [%] | other results
O=C1CCC(NCCc2ccccn2)C(=O)N1 (stereo not shown) |  |  |  | Viability (%) (Relative to DMSO) (U-937): 58.4%; viability [1]: 91.1%; Viability (%) (Relative to DMSO) (THP-1): 98.8%; inhibition at 200 µM [2]: > 50%; Viability (%) (Relative to DMSO) (HL-60): 81.8%; Viability (%) (Relative to DMSO) (K562): 80.0%; Viability (%) (Relative to DMSO) (MM1.S): 29.9%; Viability (%) (Relative to DMSO) (U266): 27.0%
CNc1ccccc1C(=O)NCCNC1CC(=O)NC1=O (stereo not shown) | No |  |  | Viability (%) (Relative to DMSO) (U-937): 6.3%; viability [1]: 92.6%; Viability (%) (Relative to DMSO) (THP-1): 41.1%; Viability (%) (Relative to DMSO) (HL-60): 12.0%; Viability (%) (Relative to DMSO) (K562): 21.1%; Viability (%) (Relative to DMSO) (MM1.S): 53.6%; Viability (%) (Relative to DMSO) (U266): 0.1%
CN(Cc1ccccc1)C1CC(=O)NC1=O (stereo not shown) | No |  |  | Viability (%) (Relative to DMSO) (U-937): 98.5%; viability [1]: 96.8%; Viability (%) (Relative to DMSO) (THP-1): 32.6%; Viability (%) (Relative to DMSO) (HL-60): 10.15%; Viability (%) (Relative to DMSO) (K562): 116.7%; Viability (%) (Relative to DMSO) (MM1.S): 1.1%; Viability (%) (Relative to DMSO) (U266): 0%
Cc1sc2c(c1C)C(c1ccc(Cl)cc1)=N[C@@H](CC(=O)OC(C)(C)C)c1nnc(C)n1-2 [JQ1] |  |  |  | BRD4 protein level ([3]; activated mouse T cells, not dependent on CRBN): slight reduction in protein expression; c-Myc mRNA (c-Myc mRNA): Suppression; proliferation (mouse T cells [4]): compromised; surface expression of CD98 (mouse T cells [4]): reduction; viability (mouse T cells [4]): compromised; binding affinity for CRBN-TBD (human TBD wild type): does not bind
Nc1cccc2c1CN(C1CCC(=O)NC1=O)C2=O (stereo not shown) [Lenalidomide, lenalidomide] |  |  |  | levels of IL2 mRNA and protein (human T cells [5]): significantly increased; pIC50 [6]: 4.79 to 5.15; lenalidomide-induced increase in IL-2 (mouse T cells [7]): only human T cells displayed the expected lenalidomide-induced increase in IL-2
O=c1ccn(CCCCc2ccccc2)c(=O)[nH]1 | Yes* | 101.8 | 86.4 | 
C=CCCCCCCCCC(=O)NC1CCC(=O)NC1=O (stereo not shown) |  | 15.6 | 82.3 | inhibition at 200 µM [2]: > 50%
Cn1c(=O)ccn(CCCCc2ccccc2)c1=O | No |  |  | Viability (%) (Relative to DMSO) (U-937): 50.5%; viability [1]: 94.2%; Viability (%) (Relative to DMSO) (THP-1): 32.8%; Viability (%) (Relative to DMSO) (HL-60): 39.3%; Viability (%) (Relative to DMSO) (K562): 17.7%; Viability (%) (Relative to DMSO) (MM1.S): 43.0%; Viability (%) (Relative to DMSO) (U266): 32.7%
COc1ccc(C2=NNC(=O)CC2)cc1OC | No | 12.4 | 100 | 
Nc1cccc(S(=O)(=O)NC2CCC(=O)NC2=O)c1 (stereo not shown) |  | 127.0 | 99.7 | inhibition at 200 µM [2]: > 50%
Nc1ccccc1C(=O)NCCn1cc(F)c(=O)[nH]c1=O | Yes* | 109.0 | 89.7 | 
O=C1CCC(N2C(=O)c3ccccc3C2=O)C(=O)N1 (stereo not shown) [Thalidomide, thalidomide] |  |  |  | growth suppression ([6]; doses up to 200 μM): no suppressive function
COC(=O)[C@H](C)NC(=O)[C@@H]1CCC(=O)N1 ([pGlu]-Ala-OMe) | No | 11.7 | 101 | 
Nc1ccccc1S(=O)(=O)NCCn1ccc(=O)[nH]c1=O | No | 31.8 | 74.6 | 
Nc1cccc2c1CN(C1CCC(=O)NC1=O)C2=O (stereo not shown) [drawing 123] |  |  |  | viability [1]: 99.9%
O=C1CCC(N2CCCC(c3ccccc3)C2)C(=O)N1 (stereo not shown) | Yes* | 45.3 | 92.1 | 
Cc1sc2c(c1C)C(c1ccc(Cl)cc1)=N[C@@H](CC(=O)NCCCCNC(=O)COc1cccc3c1C(=O)N(C1CCC(=O)NC1=O)C3=O)c1nnc(C)n1-2 (stereo partly shown) [dBET1] |  |  |  | BRD4 protein and c-Myc expression ([3]; human T cells, mouse T cells, MM1.S, 5TGM1): dramatically suppressed; surface expression of CD98 (mouse T cells [4]): reduces the percentage of cells expressing the c-Myc target CD98; viability (mouse T cells [4]): suppresses viability
CN(Cc1ccc2c(c1)OCO2)C1CCC(=O)NC1=O (stereo not shown) |  | 43 | 106 | inhibition at 200 µM [2]: > 50%
Nc1cccc2c1C(=O)N(C1CCC(=O)NC1=O)C2=O (stereo not shown) [Pomalidomide, pomalidomide] |  |  |  | proliferation (human T cells [9]): increase proliferation; relative viability (human T cells [9]; 72 h): no effect on viability; pIC50 [6]: 6.21 to 7.30
NC(=O)[C@H](Cc1ccccc1)NC(=O)[C@@H]1CCC(=O)N1 | No | 39.8 | 74.7 | 
Nc1cc(Cl)ccc1C(=O)NCCN1CCC(=O)NC1=O | Yes* | 14.1 | 78.7 | 
Nc1cccc2c1C(=O)N(C1CC(=O)NC1=O)C2=O (stereo not shown) | No | 193.8 | 97 | 
O=C1CCC(NS(=O)(=O)c2ccc([N+](=O)[O-])cc2)C(=O)N1 (stereo not shown) | Yes* | 56.3 | 93.4 | 
O=C1CCC(=O)N1 |  | 199.7 | 75.3 | inhibition at 200 µM [2]: > 50%
O=C1CCC(N2CCc3ccc(Cl)cc3C2)C(=O)N1 (stereo not shown) | Yes* | 69.9 | 93.2 | 
CCNc1cccc(S(=O)(=O)NC2CCC(=O)NC2=O)c1 (stereo not shown) | Yes* | 124.4 | 100 | 
O=c1ccn(CCNS(=O)(=O)c2ccccc2)c(=O)[nH]1 | Yes* | 90.8 | 77.8 | 
O=C1CC(N2C(=O)c3cccc([N+](=O)[O-])c3C2=O)C(=O)N1 (stereo not shown) | No | 133.4 | 81.9 | 
Nc1ccc(Cl)cc1C(=O)NCCN1CCC(=O)NC1=O |  | 20.6 | 78.8 | inhibition at 200 µM [2]: > 50%
